Source: US20120238865A1, “Method for Measuring the Physiological Parameters of Brain Interstitial Fluid and Brain Extracellular Space” (priority 2009, published 2012)

Assays:
[1] = Linear fitting of MRI signal intensity vs contrast agent concentration in agarose; format: physicochemical
Description: According to the curve, when the concentration of the contrast agents is in the range of 0-5 mM, the SI increased with the concentration. The concentration is related to the SI. In the curve, the abscissa is the concentration of the contrast agent which reflects the mobility of the ISF in brain ECS and the ordinate is the SI of MRI. It is known by the persons skilled in art that the SI here may be the directly SI or the result which is calculated indirectly from the SI such as T1. In the exemplary embodiment, the contrast agents are Gd-DPTA. Other non-ferromagnetic, non-neurotoxicity and extracellular contrast agents, such as T1 positive MRI contrast agent, also can be used here.
According to the curve shown in FIG. 2, the liner equation of the curve is obtained as below
In the four experiments, injecting contrast agents with different concentration range are into agarose, the distribution of SI of the MRI is measured in different magnetic field intensity or different MRI sequence. When quantitative measuring the contrast agents via the SI, the value of K and B can be determined via linear fitting according to the experimental conditions,
FIG. 3 is a fitting curve of the SI and the concentration of the contrast agents corresponding to the Experiment 1 shown in Table 1. It is the measurement result under the circumstances that the magnetic field intensity is 1.5T, the MRI sequence is FLASH 2D, the contrast agent is Gd-DTPA and the concentration range is 0 to 1.2 mM. According to the fitting curve, the value of K is 337.434 and the value of B is 184.344.

[2] = MRI of contrast agent diffusion after injection into brain ECS of rat caudate nucleus; format: in vivo
Description: In this exemplary embodiment, the rat 10 is anesthetized and incised in the scalp along the sagittal suture. The periosteum was separated and the bregma was exposed. 1 μL Gd-DTPA with concentration range of 5 to 25 mM is injected into the brain ECS of the rat caudate nucleus at the rate of 0.1 μL/min.
The microsyringe is slowly removed 5 minutes after injecting. In FIG. 4, the rat narcotized is placed in the wrist coil 30 in the prone position and sent into the imaging device 20 with the examination couch 12. A T1 weighted sequence is used for the MRI scanning MR images from the imaging device 20 are processed in the image-processing unit of the controlling device 40.
FIG. 6 is a curve of SI increment (ASI) vs. time of the contrast agents along X direction of FIG. 5 at the spots respectively 1 mm, 2 mm, and 3 mm away from the injection site. The increment of SI reflected the concentration increment of the contrast agents. In FIG. 6, the peak of ASI appears in the region which is 1 mm away from the injection site about 1 h after injection, and then value of ASI slowly falls down.

## O=C([O-])CN(CCN(CC(=O)[O-])CC(=O)O)CCN(CC(=O)[O-])CC(=O)O.[Gd+3] [Gd-DTPA]
[1]; Experiment 1: 1.5T, FLASH 2D, concentration range 0-1.2 mM
  Value of K (slope of SI vs concentration): 337.434
[1]; Experiment 2: 3T, FLASH 2D, concentration range 0-1.2 mM
  Value of K (slope of SI vs concentration): 247.834
[1]; Experiment 3: 3T, 3D MP-RAGE, concentration range 0-0.5 mM
  Value of K (slope of SI vs concentration): 1913.686
[1]; Experiment 4: 3T, 3D MP-RAGE, concentration range 0-1 mM
  Value of K (slope of SI vs concentration): 1174.5
[2]; 1 mm away from injection site along X direction, 1 μL 5 to 25 mM into caudate nucleus
  Time of peak of SI increment (ASI) after injection: about 1 h
[2]; spots 2 mm and 3 mm away from injection site (cortex)
  Course of SI increment (ASI, concentration increment) over time: first slowly increases then slowly decreases
